Read-outs that look alike come from different tables or passages of the source.
Key:
c-kit-2 = assay: FID assay; format: binding; settings: for c-kit-2DC50: FID; for ctDNADC50/c-kit-2DC50: FID selectivity ratio
ds26 [1] = assay: FID assay; format: binding; settings: for ds26DC50: FID; for ctDNADC50/ds26DC50: FID selectivity ratio
[2] = tested on: HTG21 / G4-HTG21 human telomeric DNA; assay: CD spectroscopy; format: binding; set-up: key to Extent of change at 290―295 nm (%): “—”represents no obvious changes in the peaks; settings: DNA 10 μM, compound 20 μM
Procedure: (§1) We asked whether chiral platinum(II) complexes 4–6 have the ability to bind to G-quadruplex DNA. To address this, FRET assays, CD spectroscopy, G4-FID assays, and fluorescence titration analysis were performed. […] For G4-HTG21, the ^G4DC50 values of complexes 4–6 were 1.23, 1.26 and 0.99 μM, respectively; while, for G4-Pu27, the ^G4DC50 values were 1.01, 0.89, and 0.82 μM, respectively. In addition, the ^ctDNADC50/^G4DC50 ratio of the HTG21 and Pu27 G4s treated with complexes 4–6 was in the range of 50.54-90.65 and 71.56-110.67 folds, respectively. To further evaluate the binding ability of complexes 4–6 to Pu27 and HTG21G4s, CD spectroscopy and fluorescence titration analysis were performed. […] The quenching ability of complexes 4–6 to HTG21 and Pu27 G4 DNA fluorescence can be quantitatively estimated by their respective quenching constant (Kq), which was derived from the Stern-Volmer quenching equation. […] Finally, the selective binding of complexes 4–6 towards G4 DNA was analyzed by FRET-melting assays. […] In contrast, the ΔTm value for the F32T+H20M duplex DNA in the presence of complexes 4–6 was 1.18, 1.34, and 0.78 °C under the same conditions (Figure 4A). Altogether, our data indicated complexes 4–6, especially complex 6, is the best binder to G4 DNA, which caused DNA complex displaying the highest thermodynamic stability. […]
Supplementary Figure 21: CD spectra of Human Telomeric DNA (10 μM) in the absence of K+ (10 mM pH 7.35 Tris-
HCl) upon addition of compounds (20 μM). […]
Supplementary Figure 22: CD spectra of Human Telomeric G-quadruplex DNA (10 μM) in the presence of K + (TBS
buffer, containing 1% DMSO, 100 mM KCl, and 10 mM pH 7.35 Tris-HCl) upon addition of compounds (20 μM). […]

Pu27 / G4-Pu27 DNA = assay: CD spectroscopy; format: binding; set-up: key to Extent of change at 290―295 nm (%): “—”represents no obvious changes in the peaks; settings: DNA 10 μM, compound 20 μM; for Extent of change at 250―265 nm (%): given with ↓; for Extent of change at 290―295 nm (%): Pu27 (G4-Pu27)
Procedure: (§2) We asked whether chiral platinum(II) complexes 4–6 have the ability to bind to G-quadruplex DNA. To address this, FRET assays, CD spectroscopy, G4-FID assays, and fluorescence titration analysis were performed. […] For G4-HTG21, the ^G4DC50 values of complexes 4–6 were 1.23, 1.26 and 0.99 μM, respectively; while, for G4-Pu27, the ^G4DC50 values were 1.01, 0.89, and 0.82 μM, respectively. In addition, the ^ctDNADC50/^G4DC50 ratio of the HTG21 and Pu27 G4s treated with complexes 4–6 was in the range of 50.54-90.65 and 71.56-110.67 folds, respectively. To further evaluate the binding ability of complexes 4–6 to Pu27 and HTG21G4s, CD spectroscopy and fluorescence titration analysis were performed. […] The quenching ability of complexes 4–6 to HTG21 and Pu27 G4 DNA fluorescence can be quantitatively estimated by their respective quenching constant (Kq), which was derived from the Stern-Volmer quenching equation. […] Finally, the selective binding of complexes 4–6 towards G4 DNA was analyzed by FRET-melting assays. […] In contrast, the ΔTm value for the F32T+H20M duplex DNA in the presence of complexes 4–6 was 1.18, 1.34, and 0.78 °C under the same conditions (Figure 4A). Altogether, our data indicated complexes 4–6, especially complex 6, is the best binder to G4 DNA, which caused DNA complex displaying the highest thermodynamic stability.
www.impactjournals.com/oncotarget/ Oncotarget, Supplementary Materials 2017 […]
Supplementary Figure 23: CD spectra of Pu27 DNA (10 μM) in the absence of K+ upon addition of compounds (20 μM).

HTG21 G4 = assay: Fluorescence titration (Stern-Volmer quenching); format: binding, human; settings: HTG21 G4-DNA, compound 20 μM, 100 mM K+
Procedure: as §1
Supplementary Figure 25: Fluorescence emission spectra of compounds (20 μM) in 100 mM K+ solution in the absence and
presence of human telomeric G-quadruplex DNA with 4 (A), 5 (B) and 6 (C), respectively.

Pu27 G4 = assay: Fluorescence titration (Stern-Volmer quenching); format: binding; settings: Pu27 G4-DNA, compound 20 μM, 100 mM K+
Procedure: as §2
Supplementary Figure 26: Fluorescence emission spectra of compounds (20 μM) in 100 mM K+ solution in the absence and
presence of G-quadruplex Pu27 with 4 (A), 5 (B) and 6 (C), respectively. […]

HeLa cells = tested on: HeLa cells; set-up: method as in earlier work; settings: 48 h, ref [1]; cited from earlier work
BEL-7402 cells = tested on: BEL-7402 cells; set-up: method as in earlier work; settings: BEL-7402, 48 h; ref [1]; cited from earlier work
Pu27 (c-myc) G4 = tested on: Pu27 (c-myc) G4; set-up: method as in earlier work; settings: ref [1], cited from earlier work; for ctDNADC50/Pu27DC50: FID selectivity ratio; for Pu27DC50: FID
[3] = tested on: HTG21 (human telomeric) G4; set-up: method as in earlier work; settings: ref [1], cited from earlier work; for ctDNADC50/HTG21DC50: FID selectivity ratio; for HTG21DC50: FID
c-kit-1 = tested on: c-kit-1; set-up: method as in earlier work; settings: ref [1], cited from earlier work; for ctDNADC50/c-kit-1DC50: FID selectivity ratio; for c-kit-1DC50: FID
Pu22 = tested on: Pu22; set-up: method as in earlier work; settings: ref [1], cited from earlier work; for ctDNADC50/Pu22DC50: FID selectivity ratio; for Pu22DC50: FID
ds26 [4] = tested on: ds26; set-up: method as in earlier work; settings: ref [1], cited from earlier work; for ctDNADC50/ds26DC50: FID selectivity ratio; for ds26DC50: FID
[5] = tested on: Pu27 (DNA, G4) TGGGGAGGGTGGGGAGGGTGGGGAAGG; assay: fluorescent intercalator displacement (FID); settings: thiazole orange displaced
[6] = G4-HTG21 (presence of K+), given with ↓
[7] = HTG21 (absence of K+), given with ↓

Compound | c-kit-2DC50 (c-kit-2) [µM] | ctDNADC50/c-kit-2DC50 (c-kit-2) | ds26DC50 (ds26 [1]) [µM] | ctDNADC50/ds26DC50 (ds26 [1]) | Extent of change at 250―265 nm (%) [2, 6] [%] | Extent of change at 290―295 nm (%) [2, 6] [%] | Extent of change at 290―295 nm (%) ([2]; HTG21 (absence of K+)) | Extent of change at 250―265 nm (%) [2, 7] [%] | Extent of change at 250―265 nm (%) (Pu27 / G4-Pu27 DNA; G4-Pu27 (presence of K+)) | Extent of change at 290―295 nm (%) (Pu27 / G4-Pu27 DNA) | Extent of change at 250―265 nm (%) (Pu27 / G4-Pu27 DNA; Pu27 (absence of K+)) | Extent of quenching (%) (HTG21 G4) | Kq (quenching constant, Stern-Volmer) (HTG21 G4) | Extent of quenching (%) (Pu27 G4) | Kq (quenching constant, Stern-Volmer) (Pu27 G4) | IC50 (HeLa cells) [µM] | IC50 (BEL-7402 cells) [µM] | ctDNADC50/Pu27DC50 (Pu27 (c-myc) G4) | Pu27DC50 (Pu27 (c-myc) G4) [µM] | ctDNADC50/HTG21DC50 [3] | also measured
cis-[PtCl2(R/S-(±)-FOA)] [complex 4] | 2.48 | 30.59 | 1.65 | 45.98 | 50.08 | 16.44 | — | 73.35 | 67.47 | — | 72.16 | 27.34 | 4.60×10^4 L·mol–1 | 32.54 | 1.02×10^5 L·mol–1 |  |  |  |  |  | 
cis-[PtCl2(S-(–)-FOA)] [complex 6] | 4.78 | 18.98 | 1.39 | 65.27 | 56.31 | 19.43 | — | 73.98 | 76.23 | — | 80.88 | 28.42 | 4.65×10^4 L·mol–1 | 40.31 | 1.38×10^5 L·mol–1 |  |  |  |  |  | 
O=C(NC[C@H](O)CO)c1cnc2c3c(cccc13)-c1ccccc1C2=O.[Cl-].[Cl-].[Pt+2] [ligand 3, S-(–)-FOA] |  |  |  |  |  |  |  |  |  |  |  |  |  |  |  | 22.9 ± 0.7 | 28.5 ± 2.4 | 62.81 | 1.43 | 48.55 | HTG21DC50 [3]: 1.85 µM; ctDNADC50/c-kit-1DC50 (c-kit-1): 36.66; c-kit-1DC50 (c-kit-1): 2.45 µM; ctDNADC50/Pu22DC50 (Pu22): 3.49; Pu22DC50 (Pu22): 25.75 µM; ctDNADC50/ds26DC50 (ds26 [4]): 11.40; ds26DC50 (ds26 [4]): 7.88 µM; G4DC50 [5]: 0.82 µM
O=C(NC[C@@H](O)CO)c1cnc2c3c(cccc13)-c1ccccc1C2=O.[Cl-].[Cl-].[Pt+2] [ligand 2, R-(+)-FOA] |  |  |  |  |  |  |  |  |  |  |  |  |  |  |  | 28.5 ± 0.3 | 68.6 ± 0.8 | 22.59 | 1.77 | 17.78 | HTG21DC50 [3]: 2.25 µM; ctDNADC50/c-kit-1DC50 (c-kit-1): < 0.40; c-kit-1DC50 (c-kit-1): > 100 µM; ctDNADC50/Pu22DC50 (Pu22): 0.69; Pu22DC50 (Pu22): 57.62 µM; ctDNADC50/ds26DC50 (ds26 [4]): 2.77; ds26DC50 (ds26 [4]): 14.41 µM; G4DC50 [5]: 0.89 µM
O=C(NCC(O)CO)c1cnc2c3c(cccc13)-c1ccccc1C2=O.[Cl-].[Cl-].[Pt+2] (racemic) [ligand 1, R/S-(±)-FOA] |  |  |  |  |  |  |  |  |  |  |  |  |  |  |  | 25.7 ± 2.2 | 30.4 ± 1.5 | 39.24 | 1.63 | 25.79 | HTG21DC50 [3]: 2.48 µM; ctDNADC50/c-kit-1DC50 (c-kit-1): 0.96; c-kit-1DC50 (c-kit-1): 66.35 µM; ctDNADC50/Pu22DC50 (Pu22): 1.88; Pu22DC50 (Pu22): 33.97 µM; ctDNADC50/ds26DC50 (ds26 [4]): 5.31; ds26DC50 (ds26 [4]): 12.05 µM; G4DC50 [5]: 1.01 µM
cis-[PtCl2(R-(+)-FOA)] [complex 5] | 3.08 | 20.68 | 2.23 | 28.56 | 52.31 | 9.76 | — | 62.38 | 57.01 | — | 62.63 | 27.21 | 4.36×10^4 L·mol–1 | 30.06 | 8.80×10^4 L·mol–1 |  |  |  |  |  | 

Source: publication PMC5617480 (Oncotarget, 2017)
